# Test results: patent US4156011A, “Sulphur- and oxygen-containing diaryl compounds” (priority 1974, dated 1979)
# Where a name gives a salt, the structure may show the parent alone. Read-outs that look alike come from different tables or passages of the source.
# What was measured:
# [1] = system: blood platelet aggregation; experiment: Anti-aggregation action in rats (graded / in words); assay type: in vivo; parameters: key to Anti-aggregation action: -: zero activity; +: significant activity; ++: intense activity; +++: very intense activity
# Description: (b) by ADP: the inhibition of aggregation (that is to say the % transmission).
# [2] = Solubility of the isolated product
# [3] = Hypo-lipidaemic and hypo-cholesterolaemic action in rats on hyper-lipid diet; assay type: in vivo, Wistar rats; details: hyper-lipid diet; for inhibition at 100 mg/kg / inhibition at 10 mg/kg / inhibition at 25 mg/kg: Rattus norvegicus, normal diet = 100%, hyper-lipid diet = 0%
# Text: A. a batch of rats receiving a normal diet (percentage inhibition=100%);
# B. a batch of rats receiving a hyper-lipid diet (percentage inhibition=0%);
# C. a batch of rats receiving the hyper-lipid diet B with a daily dose, of 0.1 g/kg, of a reference product having a lipidaemia-normalising action, namely Lipavlon [ethyl 2-(p-chlorophenoxy)-2-methyl-propionate];
# D. a batch of rats receiving the hyper-lipid diet B with a daily dose, of 0.1 g/kg, of another product having a lipidaemia-normalising action, namely LL 1558 [1,10-bis-(2-hydroxyethyl-thio)-decane]; and
# E. a batch of rats receiving the hyper-lipid diet B with a daily dose of 10 mg/kg and 25 mg/kg, where necessary, higher doses.
# In Table III which follows have been shown the results relating to CRL 40,201 (the product of Example 17) and CRL 40,202 (the product of Example 18) in respect of the hypo-lipidaemic action and hypo-cholesterolaemic action.
# [4] = Hypo-lipidaemic and hypo-cholesterolaemic action of other products (Table V); assay type: in vivo, rats; details: Rattus norvegicus, 96 h, oral 100 mg/kg for 4 days
# Text: The results of the anti-aggregation test and of the hypo-[…] action and hypo-cholesterolaemic action tests of other products of the invention have been […] Table V which follows, the code used being the following (for each dose shown): […]
# [5] = Reduction of lipids and cholesterol in rats treated orally; assay type: in vivo; details: for inhibition in vivo at 20 mg/kg: po, 120 h, 5 days
# [6] = system: platelets (aggregation induced by collagen); experiment: Anti-aggregation action, platelet aggregation induced by collagen; assay type: in vivo, male Wistar rats; details: 100 mg/kg, 4 days
# Description: (a) by collagen: the inhibition of aggregation (which corresponds to the % transmission), the latency period and the speed; and
# In Table IV which follows have been shown the results relating to the anti-aggregation action of some products on the blood of male Wistar rats, the aggregating agents used being collagen/acetic acid diluted 1/10, and ADP at 1 μM.
# [7] = oral daily dose 0.1 g/kg, read-out: Total cholesterol % inhibition
# [8] = oral daily dose 0.1 g/kg, read-out: Total lipids % inhibition
# [9] = oral daily dose 0.010 g/kg, read-out: Total cholesterol % inhibition
# [10] = oral daily dose 0.010 g/kg, read-out: Total lipids % inhibition
# [11] = oral daily dose 0.025 g/kg, read-out: Total cholesterol % inhibition
# [12] = oral daily dose 0.025 g/kg, read-out: Total lipids % inhibition
# [13] = read-out: Total lipids (change)
smiles,measurement,setting,value
"CC(CNCCO)Sc1ccc(Oc2ccc(Cl)cc2)cc1 (racemic) [CRL 40,283, (±)-N-Hydroxyethyl-2-[4-(4-chlorophenoxy)-phenylthio]-1-propylamine]",Anti-aggregation action,[1]; oral 200 mg/kg for 4 days,+
same,solubility in aqueous hydrochloric acid solution (in words),"[2]; aqueous hydrochloric acid, pH 3 to pH 7",soluble in an aqueous hydrochloric acid solution at between pH 3 and pH 7
"CC(COC(=O)C(C)(C)Oc1ccc(Sc2ccc(Cl)cc2)cc1)SCCCCCCCCCCSC(C)COC(=O)C(C)(C)Oc1ccc(Sc2ccc(Cl)cc2)cc1 (racemic) [CRL 40,387, (±)-2,15-Dimethyl-3,14-dithia-1,16-hexadecyl di-{2-[p-(p-chlorophenylthio)-phenoxy]-2-methylpropionate}]",effect on the blood platelet aggregation,"[1]; 10, 20 and 50 mg/kg orally",no effect
"OCCSCCCCCCCCCCSCCO [LL 1558, 1,10-bis-(2-hydroxyethyl-thio)-decane, reference compound]",inhibition at 100 mg/kg,[3]; [7],63%
same,inhibition at 100 mg/kg,[3]; [8],54%
same,Total cholesterol,[3]; oral daily dose 0.1 g/kg,2.22 g/L
same,Total lipids,[3]; oral daily dose 0.1 g/kg,7 g/L
"CC(CO)Sc1ccc(Oc2ccc(Cl)cc2)cc1 (racemic) [CRL 40,282, (±)-2-[4-(4-Chlorophenoxy)-phenylthio]-1-propanol]",Anti-aggregation action,[1]; oral 100 mg/kg for 4 days,+
same,solubility in water (in words),[2],water-insoluble
"CC(C)(Oc1ccc([S+]([O-])c2ccc(Cl)cc2)cc1)C(=O)O (stereo not drawn) [CRL 40,202, 4-(4-Chlorophenylsulphinyl)-phenoxyisobutyric acid]",inhibition at 10 mg/kg,[3]; [9],26%
same,inhibition at 10 mg/kg,[3]; [10],27%
same,inhibition at 25 mg/kg,[3]; [11],59%
same,inhibition at 25 mg/kg,[3]; [12],53%
same,Total cholesterol,[3]; oral daily dose 0.010 g/kg,3.64 g/L
same,Total lipids,[3]; oral daily dose 0.010 g/kg,9.28 g/L
same,Total cholesterol,[3]; oral daily dose 0.025 g/kg,2.38 g/L
same,Total lipids,[3]; oral daily dose 0.025 g/kg,7.05 g/L
"CCN(CC)CCOc1ccc(Oc2ccc(Cl)cc2)cc1.Cl [CRL 40,330, N,N-Diethyl-2-[4-(4-chlorophenoxy)-phenoxy]-ethylamine hydrochloride]",Anti-aggregation action,[1]; oral 100 mg/kg for 4 days,+
same,change in vivo at 100 mg/kg,[4]; read-out: Cholesterol (change),-13%
same,change in vivo at 100 mg/kg,[4]; [13],-13%
"CCOC(=O)C(C)(C)Oc1ccc(Cl)cc1 [Lipavlon, ethyl 2-(p-chlorophenoxy)-2-methyl-propionate, reference compound]",inhibition at 100 mg/kg,[3]; [7],11%
same,inhibition at 100 mg/kg,[3]; [8],14%
same,Total cholesterol,[3]; oral daily dose 0.1 g/kg,4.18 g/L
same,Total lipids,[3]; oral daily dose 0.1 g/kg,10.4 g/L
"CCN(CC)CCNC(=O)COc1ccc(Oc2ccc(Cl)cc2)cc1.Cl [CRL 40,334, N-(2-Diethylaminoethyl)-4-(4-chlorophenoxy)-phenoxy-acetamide hydrochloride]",Anti-aggregation action,[1]; oral 100 mg/kg for 4 days,+++
same,change in vivo at 100 mg/kg,[4]; read-out: Cholesterol (change),-17%
same,change in vivo at 100 mg/kg,[4]; [13],-17%
same,solubility in water (in words),[2],soluble in water
"CC(C)(Oc1ccc(Sc2ccc(Cl)cc2)cc1)C(=O)O [CRL 40,201, 4-(4-Chlorophenylthio)-phenoxyisobutyric acid]",inhibition at 10 mg/kg,[3]; [9],35%
same,inhibition at 10 mg/kg,[3]; [10],30%
same,inhibition at 25 mg/kg,[3]; [11],48%
same,inhibition at 25 mg/kg,[3]; [12],45%
same,Total cholesterol,[3]; oral daily dose 0.010 g/kg,3.28 g/L
same,Total lipids,[3]; oral daily dose 0.010 g/kg,9 g/L
same,Total cholesterol,[3]; oral daily dose 0.025 g/kg,2.8 g/L
same,Total lipids,[3]; oral daily dose 0.025 g/kg,7.7 g/L
"CC(COC(=O)CSc1ccc(Oc2ccc(Cl)cc2)cc1)SCCCCCCCCCCSC(C)COC(=O)CSc1ccc(Oc2ccc(Cl)cc2)cc1 (racemic) [CRL 40,405, (±)-2,15-Dimethyl-3,14-dithia-1,16-hexadecyl di-[p-(p-chlorophenoxy)-phenylthio-acetate]]",inhibition in vivo at 100 mg/kg,"[5]; Rattus norvegicus, 96 h, oral 100 mg/kg, 4 days",44%
same,inhibition in vivo at 20 mg/kg,"[5]; Rattus norvegicus, read-out: reduction in the cholesterol",30%
same,inhibition in vivo at 20 mg/kg,"[5]; Rattus norvegicus, read-out: reduction in the lipids",12%
same,reduction in the (total) lipids,"[5]; oral 100 mg/kg, 4 days",35%
same,% transmission (collagen test),[6],-10%
same,latency time (collagen test),[6]; unit not given,+10
same,speed (collagen test),[6]; unit not given,-17
"Clc1ccc(Oc2ccc(OCC3=NCCN3)cc2)cc1 [CRL 40,322, 2-[4-(4-Chlorophenoxy)-phenoxy]-methyl-2-imidazoline hydrochloride]",Anti-aggregation action,[1]; oral 100 mg/kg for 4 days,+
same,solubility in hot water (in words),"[2]; hot water, hydrochloride",soluble in hot water
